Results published in US4347319A, “Microbiological epoxidation process” (priority 1980, dated 1982).

Assays:
Test in all cases: Oxidation by cell fractions P(40), P(80), S(80)
Assay type in all cases: biochemical
[1] = target: T1, cell fractions of Methylosinus sp. (CRL-15, NRRL B-11,202) (Methylosinus trichosporium, UniProt Q50541+Q9KX50+Q9KX51); conditions: for Rate of Product Formation: P(40) particulate fraction, alkene to epoxide, alkane to alcohol; for Rate of Product Formation / Oxidizing Activity (rate of oxidation) in cell fraction: 30° C.; for 100% activity, product formed (storage study) / 100% activity, product formed (pH study) / 100% activity, product formed (temperature study) / Oxidizing Activity (rate of oxidation) in cell fraction: methane to methanol, propylene to propylene oxide; for 100% activity, product formed (pH study): optimum pH 7.0; for 100% activity, product formed (temperature study): optimum temperature 35° C.; for % Distribution in Cell Fraction: propylene-epoxidizing / methane-hydroxylating activity; for Product Formed / O2 Consumed / NADH Oxidized: stoichiometry, 5.0 μ moles substrate; for Product Formed: gas chromatography; for O2 Consumed: polarographically; for NADH Oxidized: spectrophotometrically; for Conversion Rate: particulate P(40) fraction, n-propane to 2-propanol, n-butane to 2-butanol
T1 sequence (Q9KX50 40-431): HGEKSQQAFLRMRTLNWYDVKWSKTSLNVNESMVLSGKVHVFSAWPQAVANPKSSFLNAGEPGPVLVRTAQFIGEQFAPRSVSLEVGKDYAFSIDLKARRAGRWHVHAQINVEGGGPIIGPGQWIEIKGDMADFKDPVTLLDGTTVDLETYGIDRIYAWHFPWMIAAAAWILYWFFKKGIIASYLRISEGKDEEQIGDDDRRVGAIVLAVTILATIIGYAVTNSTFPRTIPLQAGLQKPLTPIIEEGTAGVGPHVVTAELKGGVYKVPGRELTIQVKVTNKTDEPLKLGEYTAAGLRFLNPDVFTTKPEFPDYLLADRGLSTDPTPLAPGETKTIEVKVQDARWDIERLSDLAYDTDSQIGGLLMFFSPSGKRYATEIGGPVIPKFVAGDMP
T1 sequence (Q50541 1-252): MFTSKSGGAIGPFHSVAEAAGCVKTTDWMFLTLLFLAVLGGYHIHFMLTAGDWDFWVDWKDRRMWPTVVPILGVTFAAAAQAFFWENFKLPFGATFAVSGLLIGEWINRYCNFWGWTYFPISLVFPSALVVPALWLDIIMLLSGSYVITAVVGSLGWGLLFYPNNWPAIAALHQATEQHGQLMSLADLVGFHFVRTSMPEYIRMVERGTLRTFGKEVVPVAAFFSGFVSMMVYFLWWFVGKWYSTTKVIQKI
T1 sequence (Q9KX51 1-256): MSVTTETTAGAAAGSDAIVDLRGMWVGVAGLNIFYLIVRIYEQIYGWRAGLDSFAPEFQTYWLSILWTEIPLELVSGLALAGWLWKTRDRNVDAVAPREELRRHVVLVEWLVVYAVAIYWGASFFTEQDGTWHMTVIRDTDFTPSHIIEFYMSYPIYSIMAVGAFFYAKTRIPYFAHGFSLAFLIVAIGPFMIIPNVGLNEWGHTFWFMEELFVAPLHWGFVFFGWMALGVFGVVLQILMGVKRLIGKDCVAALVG
Description: (§1) Cells were washed twice with 25 mM potassium phosphate buffer, pH 7.0 containing 5 mM MgCl2. Cells were suspended in the same buffer. The cell suspensions at 4° C. were disintegrated by a single passage through a French Pressure cell (15,000 lb./in.^2) and centrifuged at 5000×g. for 15 min. to remove unbroken bacteria. The supernatant solution (crude extract) was then centrifuged at 40,000×g. for 30 min., yielding particulate P(40) and soluble S(40) fractions. The S(40) fraction was subsequently centrifuged at 80,000×g. for 60 min., yielding particulate P(80) and soluble S(80) fractions. The particulate fractions [P(40) and P(80)] were suspended in 25 mM potassium phosphate buffer, pH 7.0, containing 5 mM MgCl2 and homogenized at 4° C.
(§2) The oxidation of methane and propylene by particulate [(P)40 and (P)80] fractions and soluble [S(80)] fraction was measured at 30° C. by estimating the production of methanol and propylene oxide, respectively. The reaction mixtures contained in […]: 150 mM potassium phosphate buffer, pH 7.0 containing 5 mM MgCl2 b, 0.6 ml; 10μ moles NADH, and cellular fraction.
(§3) Reaction mixtures were contained in 10 ml vials at 4° C. Vials were sealed with rubber caps. The gaseous phase in the vials was removed using vacuum and then was replaced with a gas mixture of methane or propylene and oxygen at a 1:1, v/v ratio. Oxidation of other gaseous n-alkanes and n-alkanes was examined as described above. For liquid substrates, 10 μl of substrate was used directly.
(§4) The products of epoxidation of n-alkenes and hydroxylation of n-alkanes were assayed by flame ionization gas chromatography using a stainless steel column (12'×1/8") packed with 10% Carbowax 20 M on 80/100 Chromosorb W and Porapak Q column. The column temperature was maintained isothermally at 120° C. The carrier gas flow rate was 30 ml/min. of helium. The various products were identified by retention time comparisons and co-chromatography with authentic standards.
(§5) Specific activities were expressed as μ moles of products formed per hour per mg. protein. Concentrations of protein in various fractions were determined by the method of Lowry et al., J. Biol. Chem., 193: 265-275 (1951).

[2] = tested on: cell fractions of Methylobacterium sp. (CRL-26, NRRL B-11,222); conditions: for Oxidizing Activity (rate of oxidation) in cell fraction: propylene to propylene oxide, methane to methanol, 30° C.; for Conversion Rate: particulate P(40) fraction, n-propane to 2-propanol, n-butane to 2-butanol
Description: as §1, §2, §3, §4, §5

[3] = target: T2, cell fractions of Methylococcus capsulatus (Texas, ATCC 19,069) (Methylococcus capsulatus, UniProt G1UBD1+Q603F1+Q607G3); conditions: for Oxidizing Activity (rate of oxidation) in cell fraction: propylene to propylene oxide, methane to methanol, 30° C.; for % Distribution in Cell Fraction: propylene-epoxidizing / methane-hydroxylating activity; for Conversion Rate: particulate P(40) fraction, n-propane to 2-propanol, n-butane to 2-butanol
T2 sequence (G1UBD1 33-414): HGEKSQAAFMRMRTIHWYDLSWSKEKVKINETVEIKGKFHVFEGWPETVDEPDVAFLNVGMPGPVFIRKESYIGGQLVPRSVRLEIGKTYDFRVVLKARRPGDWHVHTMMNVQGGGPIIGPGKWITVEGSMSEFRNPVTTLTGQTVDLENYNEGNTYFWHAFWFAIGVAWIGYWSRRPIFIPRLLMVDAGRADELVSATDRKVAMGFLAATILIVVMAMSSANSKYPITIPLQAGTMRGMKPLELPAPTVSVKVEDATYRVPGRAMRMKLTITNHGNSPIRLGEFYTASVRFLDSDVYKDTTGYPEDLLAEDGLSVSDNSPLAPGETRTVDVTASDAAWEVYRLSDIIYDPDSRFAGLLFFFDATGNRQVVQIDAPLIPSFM
T2 sequence (Q607G3 1-247): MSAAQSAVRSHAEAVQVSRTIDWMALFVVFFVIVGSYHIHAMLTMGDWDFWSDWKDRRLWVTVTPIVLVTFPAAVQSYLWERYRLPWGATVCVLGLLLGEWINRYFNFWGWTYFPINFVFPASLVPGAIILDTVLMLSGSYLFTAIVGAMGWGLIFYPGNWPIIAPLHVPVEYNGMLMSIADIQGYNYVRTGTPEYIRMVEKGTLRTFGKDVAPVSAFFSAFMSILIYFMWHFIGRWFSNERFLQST
T2 sequence (Q603F1 1-260): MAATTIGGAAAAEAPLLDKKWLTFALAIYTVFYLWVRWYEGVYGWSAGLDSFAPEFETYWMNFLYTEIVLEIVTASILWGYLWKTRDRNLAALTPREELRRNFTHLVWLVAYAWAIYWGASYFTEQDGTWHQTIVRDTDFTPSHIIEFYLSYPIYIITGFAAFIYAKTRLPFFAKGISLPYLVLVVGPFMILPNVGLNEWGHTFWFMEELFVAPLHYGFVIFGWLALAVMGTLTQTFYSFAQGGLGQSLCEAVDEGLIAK
Description: as §1, §2, §3, §4, §5

| SMILES | Rate of Product Formation [1] | 100% activity, product formed (storage study) ([1]; P(40)) | 100% activity, product formed (pH study) ([1]; P(40)) | 100% activity, product formed (temperature study) ([1]; P(40)) | Oxidizing Activity (rate of oxidation) in cell fraction ([1]; P(40)) | % Distribution in Cell Fraction ([1]; P(40)) [%] | Oxidizing Activity (rate of oxidation) in cell fraction ([1]; P(80)) | % Distribution in Cell Fraction ([1]; P(80)) [%] | Oxidizing Activity (rate of oxidation) in cell fraction ([1]; S(80)) | % Distribution in Cell Fraction ([1]; S(80)) [%] | Product Formed ([1]; P(40)) [μ moles] | O2 Consumed ([1]; P(40)) [μ moles] | NADH Oxidized ([1]; P(40)) [μ moles] | Oxidizing Activity (rate of oxidation) in cell fraction ([2]; P(40)) | Oxidizing Activity (rate of oxidation) in cell fraction ([2]; P(80)) | Oxidizing Activity (rate of oxidation) in cell fraction ([2]; S(80)) | Oxidizing Activity (rate of oxidation) in cell fraction ([3]; P(40)) | % Distribution in Cell Fraction ([3]; P(40)) [%] | Oxidizing Activity (rate of oxidation) in cell fraction ([3]; P(80)) | % Distribution in Cell Fraction ([3]; P(80)) [%] | other results |
| --- | --- | --- | --- | --- | --- | --- | --- | --- | --- | --- | --- | --- | --- | --- | --- | --- | --- | --- | --- | --- | --- |
| C=CC [Propylene] | 4.1 μ moles/hr/mg of protein | 4.1 μmoles per hr. per mg. of prot | 4.1 μmoles per hour per mg protein | 4.2 μmoles per hour per mg of prot | 3.8 μ moles of products formed per | 87 | 3.7 μ moles of products formed per | 13 | 0 μ moles of products formed per | 0 | 4.5 | 4.8 | 5.0 | 1.2 μ moles of products formed per | 1.1 μ moles of products formed per | 0 μ moles of products formed per | 2.6 μ moles of products formed per | 89 | 2.0 μ moles of products formed per | 11 | Oxidizing Activity (rate of oxidation) in cell fraction ([3]; S(80)): 0 μ moles of products formed per; % Distribution in Cell Fraction ([3]; S(80)): 0% |
| CCC [Propane] | – | – | – | – | – | – | – | – | – | – | – | – | – | – | – | – | – | – | – | – | Conversion Rate [1]: 1.5 μmoles/hr/2.0mg. of protein; Conversion Rate [2]: 1.0 μmoles/hr/2.0mg. of protein; Conversion Rate [3]: 1.2 μmoles/hr/2.0mg. of protein |
| CCCC [Butane] | – | – | – | – | – | – | – | – | – | – | – | – | – | – | – | – | – | – | – | – | Conversion Rate [1]: 0.89 μmoles/hr/2.0mg. of protein; Conversion Rate [2]: 0.61 μmoles/hr/2.0mg. of protein; Conversion Rate [3]: 0.92 μmoles/hr/2.0mg. of protein |
| C [Methane] | 4.8 μ moles/hr/mg of protein | 4.8 μmoles per hr. per mg. of prot | 4.8 μmoles per hour per mg protein | 5.0 μmoles per hour per mg of prot | 4.8 μ moles of products formed per | 88 | 4.2 μ moles of products formed per | 12 | 0 μ moles of products formed per | 0 | 4.2 | 4.6 | 4.8 | 2.7 μ moles of products formed per | 2.8 μ moles of products formed per | 0 μ moles of products formed per | 3.8 μ moles of products formed per | 90 | 3.9 μ moles of products formed per | 10 | Oxidizing Activity (rate of oxidation) in cell fraction ([3]; S(80)): 0 μ moles of products formed per; % Distribution in Cell Fraction ([3]; S(80)): 0% |
| C=CC=C [Butadiene] | 0.63 μ moles/hr/mg of protein | – | – | – | – | – | – | – | – | – | – | – | – | – | – | – | – | – | – | – | – |
